{"source": "patent US20150342853A1", "about": "“Topical Lightening Composition and Methods of Use Thereof” (Avon Products, Inc., priority 2014, published 2015)", "experiment": "in vitro test of lightening of synthetic melanin (absorbance at 405 nm)", "format": "biochemical", "conditions": "melanin absorbance at 405 nm relative to vehicle control, two weeks", "protocol": "Fabiana imbricata extract (having between 15,000 and 30,000 units/g of glucose oxidase activity) was examined for its ability to lighten melanin in an in vitro test. A solution of synthetic melanin at a concentration of 0.025% in dimethyl sulfoxide was prepared. 1 ml was added to each well of a 24-well plate. A 1% stock solution of Fabiana imbricata extract was prepared in phosphate-buffered saline and diluted serially at a ratio of 1:2 yielding 0.5%, 0.25% and 0.125% solutions of Fabiana imbricata extract. Solutions of glucose were prepared similarly. 10 microliters of each concentration of Fabiana imbricata extract was added along with 10 microliters of glucose to 1 ml of the melanin solution in each well of the microplate. Each concentration was tested in triplicate. Three wells received the phosphate-buffered saline as vehicle control. Hydrogen peroxide at 0.3, 0.03 and 0.003% was added to 3 wells each as positive control. The microplate was incubated at room temperature and treatments described above were repeated for a total of ten times over two weeks. At the end of the incubation period, melanin absorbance was measured at 405 nm using a spectrophotometer. Results are summarized in the table below as percent of melanin absorbance relative to vehicle control. A lower absorbance indicates lightening of melanin."}
{"smiles": "OO", "note": "[Example H2O2, Hydrogen peroxide]", "values": [{"measurement": "% Relative Absorbance", "setting": "0.003% H2O2 positive control", "value": 87.5, "unit": "%"}, {"measurement": "% Relative Absorbance", "setting": "0.03% H2O2 positive control", "value": 70.6, "unit": "%"}, {"measurement": "% Relative Absorbance", "setting": "0.3% H2O2 positive control", "value": 30.6, "unit": "%"}]}
